The source of these data is US20240254083A1, “HETEROCYCLIC TRPML1 AGONISTS AND USES THEREOF” (Libra Therapeutics, Inc., priority 2021, published 2024).

In this test the target is T1, hTRPML1 (Homo sapiens, UniProt Q9GZU1).
T1 construct: expressed in transfected cells
The test is described as follows: Cellular TRPML1 assay (FLIPR, GCaMP6f calcium read-out). Format: cell-based. Conditions: HEK T-REx/GCaMP6f/TRPML1 cells, FLIPR TETRA, kinetic response over 300 seconds; read-out: hTRPML1 FLIPR pEC50 (converted). As to the method:
Buffers and reagents • PBS (D-PBS without calcium and magnesium; EuroClone) • Trypsin (Trypsin 0.05%, EDTA 0.02% in PBS; EuroClone) • DMSO (Sigma) • Ca^2+ free Tyrode's buffer: in-house solution (130 mM NaCl, 5 mM KCl, 1 mM MgCl2, 5 mM NaHCO3, 20 mM HEPES in water at pH 7.4; sterile filtered). • Opti-MEM (Gibco) • Agonist: ML-SA1 (Sigma); stock: 60 mM in DMSO, stored at −20° C. • Blocker: ML-SI3 (in house synthesis); stock: 20 mM in DMSO, stored at −20° C.
Cell line • The final clone for the TRPML1 assay is HEK T-REx/GCaMP6f/TRPML1. • GCaMP6f is a genetically encoded calcium indicator that is stably expressed in this cell line and used as a fluorescent read-out.
Cells are seeded at 15000 cells/well either in 25 µl/well of growth medium or in 20 μl/well of Optimem+0.5% FBS without selection antibiotics. Twenty-four hours later, cells are assayed for the response to various compounds using the Ca^2+ sensitive GCaMP6f protein stably expressed in the cells as readout.
The experiment is performed in a 384-well format according to the following procedures for either Ca^2+ free or Optimem conditions: • Ca^2+ free condition (in absence of extracellular Ca^2+): • 24 h after seeding, pre-incubate the cells at room temperature for about 10′. • Then remove the culture medium and replace it with 20 μL of Ca^2+ free Tyrode's buffer. • Start the experiment at the FLIPR^TETRA by injecting 10 μL/w of 3× concentrated test compounds and controls in Ca^2+ free Tyrode's buffer. Monitor the kinetic response over a period of 300 seconds. • Final DMSO concentration: 0.5% • Optimem condition (in presence of extracellular Ca^2+): • 24 h after seeding, pre-incubate the cells at room temperature for about 10′. • Start the experiment at the FLIPR^TETRA by injecting 10 μL/w of 3× concentrated test compounds and controls in Ca^2+ free Tyrode's buffer. Monitor the kinetic response over a period of 300 seconds. • Final DMSO concentration: 0.5%
Data from FLIPR^TETRA measurements are analyzed with the Genedata Screener© software.

T1 sequence (Q9GZU1 whole entry): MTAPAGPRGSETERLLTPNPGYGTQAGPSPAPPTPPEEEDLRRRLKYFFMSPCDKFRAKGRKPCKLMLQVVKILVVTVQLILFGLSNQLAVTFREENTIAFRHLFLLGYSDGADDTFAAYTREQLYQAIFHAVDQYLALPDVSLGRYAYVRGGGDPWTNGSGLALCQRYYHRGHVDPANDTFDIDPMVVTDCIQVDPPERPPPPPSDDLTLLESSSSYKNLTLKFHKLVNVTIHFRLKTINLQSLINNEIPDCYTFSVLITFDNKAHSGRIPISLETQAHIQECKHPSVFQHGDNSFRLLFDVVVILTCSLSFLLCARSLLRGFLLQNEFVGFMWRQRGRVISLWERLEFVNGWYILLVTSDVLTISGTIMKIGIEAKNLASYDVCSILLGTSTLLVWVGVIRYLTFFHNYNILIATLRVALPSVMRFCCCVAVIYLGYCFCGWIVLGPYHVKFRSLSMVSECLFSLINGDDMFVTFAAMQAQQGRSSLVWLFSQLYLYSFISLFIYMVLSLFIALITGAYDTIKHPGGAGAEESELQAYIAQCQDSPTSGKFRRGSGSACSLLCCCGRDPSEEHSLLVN

`CN(C)S(=O)(=O)c1ccc(S(=O)(=O)Nc2ccccc2N2CCC[C@H](OCc3ccccc3)C2)cc1` (single isomer, unassigned) [Example 26]: the EC50 was 1 to 3.16 µM.
In the case of `CN(C)S(=O)(=O)c1ccc(S(=O)(=O)Nc2ccccc2N2CCC[C@@H](OCc3ccccc3)C2)cc1` (single isomer, unassigned) [Example 27], the EC50 is 1 to 3.16 µM.
As for `CN(C)S(=O)(=O)c1ccc(S(=O)(=O)Nc2ccccc2N2CCC[C@H](Oc3ccccc3)C2)cc1` (single isomer, unassigned) [Example 29], the figure is over 3.16 µM; as for `CN(C)S(=O)(=O)c1ccc(S(=O)(=O)Nc2ccccc2N2CCC[C@@H](Oc3ccccc3)C2)cc1` (single isomer, unassigned) [Example 30], 1 to 3.16 µM; as for `CN(C)S(=O)(=O)c1ccc(S(=O)(=O)Nc2ccccc2N2CCC[C@H](COc3ccccc3)C2)cc1` (single isomer, unassigned) [Example 35], 1 to 3.16 µM.
As for `CN(C)S(=O)(=O)c1ccc(S(=O)(=O)Nc2ccccc2N2CCC[C@@H](COc3ccccc3)C2)cc1` (single isomer, unassigned) [Example 36], the figure is 1 to 3.16 µM; as for `COCCN(C(=O)c1ccc(S(=O)(=O)N(C)C)cc1)c1ccccc1N1CCC(Oc2ccccc2)CC1` [Example 3, 4-(N,N-dimethylsulfamoyl)-N-(2-methoxyethyl)-N-(2-(4-phenoxypiperidin-1-yl)phenyl)benzamide], over 3.16 µM.
Turning to `CCCN(C(=O)c1ccc(S(=O)(=O)N(C)C)cc1)c1ccccc1N1CCC(Oc2ccccc2)CC1` [Example 4, 4-(N,N-dimethylsulfamoyl)-N-(2-(4-phenoxypiperidin-1-yl)phenyl)-N-propylbenzamide], the EC50 was 1 to 3.16 µM.
As for `CN(C)S(=O)(=O)c1ccc(C(=O)N(c2ccccc2N2CCC(Oc3ccccc3)CC2)C2CC2)cc1` [Example 5, N-cyclopropyl-4-(N,N-dimethylsulfamoyl)-N-(2-(4-phenoxypiperidin-1-yl)phenyl)benzamide], the figure is over 3.16 µM; as for `CN(C)S(=O)(=O)c1ccc(S(=O)(=O)Nc2cccc(Cl)c2N2CCC(Oc3ccccn3)CC2)cc1` [Example 7, N^1-(3-chloro-2-(4-(pyridin-2-yloxy)piperidin-1-yl)phenyl)-N^4,N^4-dimethylbenzene-1,4-disulfonamide], 1 to 3.16 µM.
The figure for `CN(C(=O)c1ccc(S(=O)(=O)N(C)C)cc1)c1cccc(F)c1N1CCC(Oc2ccccn2)CC1` [Example 9, 4-(N,N-dimethylsulfamoyl)-N-(3-fluoro-2-(4-(pyridin-2-yloxy)piperidin-1-yl)phenyl)-N-methylbenzamide] is over 3.16 µM; for `CC(C)N(C(=O)c1ccc(S(=O)(=O)N(C)C)cc1)c1cccc(F)c1N1CCC(Oc2ccccn2)CC1` [Example 11, 4-(N,N-dimethylsulfamoyl)-N-(3-fluoro-2-(4-(pyridin-2-yloxy)piperidin-1-yl)phenyl)-N-isopropylbenzamide] it is over 3.16 µM.
With `CN(C)S(=O)(=O)c1ccc(C(=O)N(c2cccc(F)c2N2CCC(Oc3ccccn3)CC2)C2CCC2)cc1` [Example 12, N-cyclobutyl-4-(N,N-dimethylsulfamoyl)-N-(3-fluoro-2-(4-(pyridin-2-yloxy)piperidin-1-yl)phenyl)benzamide], the EC50 was over 3.16 µM.
The figure for `CN(C)S(=O)(=O)c1ccc(S(=O)(=O)Nc2cc(Cl)ccc2N2CCC(Oc3ccccn3)CC2)cc1` [Example 13, N^1-(5-chloro-2-(4-(pyridin-2-yloxy)piperidin-1-yl)phenyl)-N^4,N^4-dimethylbenzene-1,4-disulfonamide] is 1 to 3.16 µM; for `Cc1ccc(N2CCC(Oc3ccccn3)CC2)c(NS(=O)(=O)c2ccc(S(=O)(=O)N(C)C)cc2)c1` [Example 14, N^1,N^1-dimethyl-N^4-(5-methyl-2-(4-(pyridin-2-yloxy)piperidin-1-yl)phenyl)benzene-1,4-disulfonamide] it is under 1 µM; for `CCS(=O)(=O)c1ccc(S(=O)(=O)Nc2cccc(F)c2N2CCC(Oc3ccccn3)CC2)cc1` [Example 15, 4-(ethylsulfonyl)-N-(3-fluoro-2-(4-(pyridin-2-yloxy)piperidin-1-yl)phenyl)benzenesulfonamide] it is 1 to 3.16 µM.
Consider `Cc1ccc(N2CCC(Oc3ccccn3)CC2)c(N(C(=O)c2ccc(S(=O)(=O)N(C)C)cc2)C2CCCC2)c1` [Example 16, N-cyclopentyl-4-(N,N-dimethylsulfamoyl)-N-(5-methyl-2-(4-(pyridin-2-yloxy)piperidin-1-yl)phenyl)benzamide], for which the EC50 is 1 to 3.16 µM.
The figure for `Cc1ccc(S(=O)(=O)Nc2ccccc2N2CCN(C(=O)OC(C)(C)C)CC2)c(F)c1` [Example 18, tert-butyl 4-(2-((2-fluoro-4-methylphenyl)sulfonamido)phenyl)piperazine-1-carboxylate] is over 3.16 µM.
The figure for `Cc1ccc(C)c(S(=O)(=O)Nc2ccccc2N2CCN(C(=O)OC(C)(C)C)CC2)c1` [Example 20, tert-butyl 4-(2-((2,5-dimethylphenyl)sulfonamido)phenyl)piperazine-1-carboxylate] is over 3.16 µM; for `CC(C)(C)OC(=O)N1CCN(c2ccccc2NS(=O)(=O)c2ccc(OC(F)(F)F)cc2)CC1` [Example 21, tert-butyl 4-(2-((4-(trifluoromethoxy)phenyl)sulfonamido)phenyl) piperazine-1-carboxylate] it is over 3.16 µM; for `CN(C)S(=O)(=O)c1ccc(S(=O)(=O)Nc2ccccc2N2CCCCCCC2)cc1` [Example 24, N1-(2-(azocan-1-yl)phenyl)-N4,N4-dimethylbenzene-1,4-disulfonamide] it is 1 to 3.16 µM.
The figure for `CN(C)S(=O)(=O)c1ccc(S(=O)(=O)Nc2cccc(F)c2N2CCC(C)(c3ccccc3)CC2)cc1` [Example 37, N^1-(3-fluoro-2-(4-methyl-4-phenylpiperidin-1-yl)phenyl)-N^4,N^4-dimethylbenzene-1,4 disulfonamide] is under 1 µM.
In the case of `Cc1ccc(S(=O)(=O)Nc2ccccc2N2CCN(C(=O)Oc3ccccc3)CC2)cc1C` [Example 39, phenyl 4-(2-((3,4-dimethylphenyl)sulfonamido)phenyl) piperazine-1-carboxylate], the EC50 was over 3.16 µM.
As for `Cc1ccc(S(=O)(=O)Nc2ccccc2N2CCN(C(=O)CC(C)(C)C)CC2)cc1C` [Example 41, N-(2-(4-(3,3-dimethylbutanoyl)piperazin-1-yl)phenyl)-3,4-dimethylbenzenesulfonamide], the figure is over 3.16 µM; as for `CC(C)(C)CC(=O)N1CCN(c2ccccc2NS(=O)(=O)c2ccc(C(F)(F)F)cc2)CC1` [Example 42, N-(2-(4-(3,3-dimethylbutanoyl)piperazin-1-yl)phenyl)-4-(trifluoromethyl)benzenesulfonamide], over 3.16 µM; as for `CN(C)S(=O)(=O)c1ccc(S(=O)(=O)Nc2cccc(F)c2N2CCC(Oc3ccc(C(F)(F)F)cn3)CC2)cc1` [Example 43, N^1-(3-fluoro-2-(4-((5-(trifluoromethyl)pyridin-2-yl)oxy)piperidin-1-yl)phenyl)-N^4,N^4-dimethylbenzene-1,4-disulfonamide], under 1 µM.
As for `CN(C)S(=O)(=O)c1ccc(S(=O)(=O)Nc2cccc(F)c2N2CCC(Oc3ccc(Cl)cn3)CC2)cc1` [Example 44, N^1-(2-(4-((5-chloropyridin-2-yl)oxy)piperidin-1-yl)-3-fluorophenyl)-N^4,N^4-dimethylbenzene-1,4-disulfonamide], the figure is under 1 µM; as for `CN(C)S(=O)(=O)c1ccc(S(=O)(=O)Nc2cccc(F)c2N2CCC(Oc3ncc(Cl)cc3F)CC2)cc1` [Example 45, N^1-(2-(4-((5-chloro-3-fluoropyridin-2-yl)oxy)piperidin-1-yl)-3-fluorophenyl)-N^4,N^4-dimethylbenzene-1,4-disulfonamide], under 1 µM.
